Measured values as given in US20130190403A1, “ADMINISTRATION OF INTRAVENOUS IBUPROFEN TO TRAUMA PATIENTS” (Cumberland Pharmaceuticals Inc., priority 2012, published 2013).

System: traumatic rib fracture patients
Experiment: Retrospective review of traumatic rib fracture patients: intravenous ibuprofen plus narcotics versus narcotics alone
Type: in vivo, human

## CC(C)Cc1ccc(C(C)C(=O)O)cc1 (stereo not drawn) [ibuprofen, 2-(4-isobutylphenyl) propionic acid]
Day 1 or Day 2
  daily narcotic requirement, Treatment Group versus Control Group: did not differ
Treatment group
  complications associated with ibuprofen therapy: no significant complications
Each of Days 3 through 7 (p<0.05)
  daily narcotic requirement, Treatment Group versus Control Group: significantly decreased
